{"source": "the supplement of paper PMC11208160"}
{"experiment": "recombinant barcode read abundance after kanamycin selection (control-corrected) (log10(CPM+1)); higher = more efficient recombination; sequences stand for … in AGTGCAGAGAAAATCGGCCAGTTTTCTCTGCCTGCAGTCCGCATGCCGT…AGATTTATGCAGCGGACTGCCTTTCTCCCAAAGTGATAAACCGGACAGTATCATGGACCGGTTTTCCCGGTAATCCGTATTTGCAAGGTTGGTTTCACT; site = the 11-nt target", "summary_of_the_method": "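A vector carrying a T7-inducible recombinase and the last 73 bp of the bridge RNA received, by Gibson cloning, oligos encoding a promoter, target, barcode and the first 104 bridge RNA bases under J23119. The pooled constructs entered E. coli together with a donor plasmid by electroporation. Selection used chloramphenicol/ampicillin/kanamycin with 0.1 mM IPTG, with chloramphenicol/ampicillin LB agar as the control, each in two replicates. Recombination efficiency is the averaged, control-corrected counts-per-million of barcodes at recombinant junctions, reported as log10(CPM+1).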"}
{"sequence": "CGTTTCCCTTGGGTTCTAACCTGTTGCAG (site CGTTTCCCTCT)", "recombinant barcode read abundance (log10)": 0.427}
{"sequence": "CGTTTCCCTTGGGTTCTAACCTGTTGCGT (site CGTTTCCCTAC)", "recombinant barcode read abundance (log10)": 1.04}
{"sequence": "CGTTTCCCTTGGGTTCTAACCTGTTGCGT (site CGTTTCCCTCT)", "recombinant barcode read abundance (log10)": 0.0161}
{"sequence": "CTAAAACCTTGGGTTCTAACCTGTTGCCT (site ATAAAACCTAG)", "recombinant barcode read abundance (log10)": 0.0167}
{"sequence": "CTAAAACCTTGGGTTCTAACCTGTTGCCT (site CTAAAACCTAG)", "recombinant barcode read abundance (log10)": 1}
{"sequence": "CTAAAACCTTGGGTTCTAACCTGTTGCCT (site GTAAAACCTAG)", "recombinant barcode read abundance (log10)": 0.0969}
{"sequence": "CTAAAACCTTGGGTTCTAACCTGTTGCCT (site TTAAAACCTAG)", "recombinant barcode read abundance (log10)": 0.218}
{"sequence": "CTAAAGTCTTGGGTTCTAACCTGTTGCCA (site CTAAAGTCTTG)", "recombinant barcode read abundance (log10)": 0.399}
{"sequence": "CTAAAGTCTTGGGTTCTAACCTGTTGCCA (site GTAAAGTCTTG)", "recombinant barcode read abundance (log10)": 0.0268}
{"sequence": "CTAAATACTTGGGTTCTAACCTGTTGCTA (site CTAAATACTAG)", "recombinant barcode read abundance (log10)": 0.835}
{"sequence": "CTAAATACTTGGGTTCTAACCTGTTGCTA (site CTAAATACTTA)", "recombinant barcode read abundance (log10)": 0.126}
{"sequence": "CTAACCACTTGGGTTCTAACCTGTTGCCA (site CTAACCACTTG)", "recombinant barcode read abundance (log10)": 0.329}
{"sequence": "CTAACCACTTGGGTTCTAACCTGTTGCCA (site CTAACTACTAG)", "recombinant barcode read abundance (log10)": 0.0393}
{"sequence": "CTAACCTCTTGGGTTCTAACCTGTTGCTC (site CTAACCTCTAA)", "recombinant barcode read abundance (log10)": 0.0754}
{"sequence": "CTAACCTCTTGGGTTCTAACCTGTTGCTC (site CTAACCTCTCA)", "recombinant barcode read abundance (log10)": 0.0593}
{"sequence": "CTAACCTCTTGGGTTCTAACCTGTTGCTC (site CTAACCTCTGA)", "recombinant barcode read abundance (log10)": 1.66}
{"sequence": "CTAACCTCTTGGGTTCTAACCTGTTGCTC (site CTAACCTCTTA)", "recombinant barcode read abundance (log10)": 0.0437}
{"sequence": "CTAACCTCTTGGGTTCTAACCTGTTGCTG (site CTAACCTCTAA)", "recombinant barcode read abundance (log10)": 0.0311}
{"sequence": "CTAACCTCTTGGGTTCTAACCTGTTGCTG (site CTAACCTCTCA)", "recombinant barcode read abundance (log10)": 1.49}
{"sequence": "CTAACCTCTTGGGTTCTAACCTGTTGCTG (site CTAACCTCTGA)", "recombinant barcode read abundance (log10)": 0.0869}
{"sequence": "CTAACCTCTTGGGTTCTAACCTGTTGCTG (site CTAACCTCTTA)", "recombinant barcode read abundance (log10)": 0.0665}
{"sequence": "CTAACTACTTGGGTTCTAACCTGTTGCCT (site CTAACCACTTG)", "recombinant barcode read abundance (log10)": 0}
{"sequence": "CTAACTACTTGGGTTCTAACCTGTTGCCT (site CTAACTACTAG)", "recombinant barcode read abundance (log10)": 0.26}
{"sequence": "CTAACTACTTGGGTTCTAACCTGTTGCGT (site CTAACTACTAC)", "recombinant barcode read abundance (log10)": 0.181}
{"sequence": "CTAACTACTTGGGTTCTAACCTGTTGCGT (site GAGGTGCCTCA)", "recombinant barcode read abundance (log10)": 0.0974}
{"sequence": "CTAAGAACTTGGGTTCTAACCTGTTGCTT (site CTAAGAACTAA)", "recombinant barcode read abundance (log10)": 0.254}
{"sequence": "CTAAGAACTTGGGTTCTAACCTGTTGCTT (site CTAAGAACTAC)", "recombinant barcode read abundance (log10)": 0.509}
{"sequence": "CTAAGAACTTGGGTTCTAACCTGTTGCTT (site CTAAGAACTAG)", "recombinant barcode read abundance (log10)": 0.135}
{"sequence": "CTAAGAACTTGGGTTCTAACCTGTTGCTT (site CTAAGAACTAT)", "recombinant barcode read abundance (log10)": 0.086}
{"sequence": "CTAAGAGCTTGGGTTCTAACCTGTTGCAG (site CTAAGAGCTCG)", "recombinant barcode read abundance (log10)": 0.123}
{"sequence": "CTAAGAGCTTGGGTTCTAACCTGTTGCAG (site CTAAGAGCTCT)", "recombinant barcode read abundance (log10)": 1.98}
{"sequence": "CTAAGCGCTTGGGTTCTAACCTGTTGCCT (site AGTCAGACTGT)", "recombinant barcode read abundance (log10)": 0.463}
{"sequence": "CTAAGCGCTTGGGTTCTAACCTGTTGCCT (site CTAAGCGCTAG)", "recombinant barcode read abundance (log10)": 0.346}
{"sequence": "CTAAGCTCTTGGGTTCTAACCTGTTGCCT (site ATAAGCTCTAG)", "recombinant barcode read abundance (log10)": 0.129}
{"sequence": "CTAAGCTCTTGGGTTCTAACCTGTTGCCT (site CTAAGCTCTAG)", "recombinant barcode read abundance (log10)": 0.756}
{"sequence": "CTAAGCTCTTGGGTTCTAACCTGTTGCCT (site GTAAGCTCTAG)", "recombinant barcode read abundance (log10)": 0.0807}
{"sequence": "CTAAGCTCTTGGGTTCTAACCTGTTGCCT (site TTAAGCTCTAG)", "recombinant barcode read abundance (log10)": 0.201}
{"sequence": "CTAAGCTCTTGGGTTCTAACCTGTTGCTC (site CTAAGCTCTAA)", "recombinant barcode read abundance (log10)": 0.537}
{"sequence": "CTAAGCTCTTGGGTTCTAACCTGTTGCTC (site CTAAGCTCTCA)", "recombinant barcode read abundance (log10)": 0.0828}
{"sequence": "CTAAGCTCTTGGGTTCTAACCTGTTGCTC (site CTAAGCTCTGA)", "recombinant barcode read abundance (log10)": 1.03}
{"sequence": "CTAAGCTCTTGGGTTCTAACCTGTTGCTC (site CTAAGCTCTTA)", "recombinant barcode read abundance (log10)": 0.119}
{"sequence": "CTAAGGTCTTGGGTTCTAACCTGTTGCCT (site CTAAGGTCTAA)", "recombinant barcode read abundance (log10)": 0.745}
{"sequence": "CTAAGGTCTTGGGTTCTAACCTGTTGCCT (site CTAAGGTCTAC)", "recombinant barcode read abundance (log10)": 0.122}
{"sequence": "CTAAGGTCTTGGGTTCTAACCTGTTGCCT (site CTAAGGTCTAG)", "recombinant barcode read abundance (log10)": 0.923}
{"sequence": "CTAAGGTCTTGGGTTCTAACCTGTTGCCT (site CTAAGGTCTAT)", "recombinant barcode read abundance (log10)": 0.222}
{"sequence": "CTAATACCTTGGGTTCTAACCTGTTGCGT (site CTAATACCTAC)", "recombinant barcode read abundance (log10)": 1.04}
{"sequence": "CTAATACCTTGGGTTCTAACCTGTTGCGT (site CTCATACCTAC)", "recombinant barcode read abundance (log10)": 0.0518}
{"sequence": "CTAATGTCTTGGGTTCTAACCTGTTGCCT (site CTAATGTCTAG)", "recombinant barcode read abundance (log10)": 1.65}
{"sequence": "CTAATGTCTTGGGTTCTAACCTGTTGCCT (site CTAATGTCTTG)", "recombinant barcode read abundance (log10)": 0.0145}
{"sequence": "CTAATTGCTTGGGTTCTAACCTGTTGCAA (site CTAATTGCTTT)", "recombinant barcode read abundance (log10)": 0.0868}
{"sequence": "CTAATTGCTTGGGTTCTAACCTGTTGCAA (site CTACTTGCTTT)", "recombinant barcode read abundance (log10)": 0.0139}
{"sequence": "CTAATTGCTTGGGTTCTAACCTGTTGCAA (site CTAGTTGCTTT)", "recombinant barcode read abundance (log10)": 0.344}
{"sequence": "CTAATTGCTTGGGTTCTAACCTGTTGCAA (site CTATTTGCTTT)", "recombinant barcode read abundance (log10)": 0.0237}
{"sequence": "CTACAATCTTGGGTTCTAACCTGTTGCAT (site CTACAATCTAA)", "recombinant barcode read abundance (log10)": 0.192}
{"sequence": "CTACAATCTTGGGTTCTAACCTGTTGCAT (site CTACAATCTAT)", "recombinant barcode read abundance (log10)": 1.51}
{"sequence": "CTACAATCTTGGGTTCTAACCTGTTGCTT (site CTACAATCTAA)", "recombinant barcode read abundance (log10)": 1.17}
{"sequence": "CTACAATCTTGGGTTCTAACCTGTTGCTT (site CTACAATCTAT)", "recombinant barcode read abundance (log10)": 0.816}
{"sequence": "CTACACCCTTGGGTTCTAACCTGTTGCTT (site CTACAACCTAA)", "recombinant barcode read abundance (log10)": 0.0455}
{"sequence": "CTACACCCTTGGGTTCTAACCTGTTGCTT (site CTACACCCTAA)", "recombinant barcode read abundance (log10)": 1.39}
{"sequence": "CTACACCCTTGGGTTCTAACCTGTTGCTT (site CTACAGCCTAA)", "recombinant barcode read abundance (log10)": 0.296}
{"sequence": "CTACACCCTTGGGTTCTAACCTGTTGCTT (site CTACATCCTAA)", "recombinant barcode read abundance (log10)": 0.22}
{"sequence": "CTACAGGCTTGGGTTCTAACCTGTTGCAC (site CTACAGGCTGT)", "recombinant barcode read abundance (log10)": 1}
{"sequence": "CTACAGGCTTGGGTTCTAACCTGTTGCAC (site GAGTCTTCTTG)", "recombinant barcode read abundance (log10)": 0.165}
{"sequence": "CTACCACCTTGGGTTCTAACCTGTTGCCT (site CTACCAACTAG)", "recombinant barcode read abundance (log10)": 0.16}
{"sequence": "CTACCACCTTGGGTTCTAACCTGTTGCCT (site CTACCACCTAG)", "recombinant barcode read abundance (log10)": 1.8}
{"sequence": "CTACCACCTTGGGTTCTAACCTGTTGCCT (site CTACCAGCTAG)", "recombinant barcode read abundance (log10)": 0.0722}
